Results as given in paper PMC4189182 (Journal of cardiac failure, 2014).

How the values were obtained:
[1] = human, in vivo
[2] = in vivo; cited from earlier work

Halflife [1]: 14.4 min | increase in Clearance associated with genotype at rs6798179 (MME) ([1]; iv): roughly 50% | increase in K associated with genotype at rs6798179 (MME) ([1]; iv): roughly 50% | range of Adjusted BNP Clearance ([1]; iv): 0.1 to 67 mL/min | range of BNP Clearance ([1]; iv): 0.027 to 7.25 mL/min | range of Half-life ([1]; iv): 6.6 to 56.4 min | range of K ([1]; iv): 0.002-9.7 | range of ΔBNP ([1]; iv): 14 to 7900 pg/mL | smaller change in BNP due to infusion associated with genotype at rs6798179 (MME) ([1]; iv): ~40%
Compound: CC[C@H](C)[C@@H]1NC(=O)[C@H](CCCNC(=N)N)NC(=O)[C@H](CC(=O)O)NC(=O)[C@H](CCSC)NC(=O)[C@H](CCCCN)NC(=O)[C@H](CCCNC(=N)N)NC(=O)CNC(=O)[C@H](Cc2ccccc2)NC(=O)[C@@H](NC(=O)CNC(=O)[C@H](CO)NC(=O)CNC(=O)[C@H](CCC(N)=O)NC(=O)[C@@H](NC(=O)[C@H](CCSC)NC(=O)[C@H](CCCCN)NC(=O)[C@@H]2CCCN2C(=O)[C@@H](N)CO)C(C)C)CSSC[C@@H](C(=O)N[C@@H](CCCCN)C(=O)N[C@H](C(=O)N[C@@H](CC(C)C)C(=O)N[C@@H](CCCN=C(N)N)C(=O)N[C@@H](CCCN=C(N)N)C(=O)N[C@@H](Cc2cnc[nH]2)C(=O)O)C(C)C)NC(=O)CNC(=O)[C@H](CC(C)C)NC(=O)CNC(=O)[C@H](CO)NC(=O)[C@H](CO)NC(=O)[C@H](CO)NC(=O)[C@H](CO)NC1=O [nesiritide]
previously reported average half-life [2]: roughly 18 minutes
